Reference: US20040241839A1, “Culturing neural stem cells” (priority 2003, published 2004)
Where two headings read alike, the source gives them in different places.

Legend:
[1] = test system: neurospheres (AC133 and Sca-1 antigens); assay: Immunocytochemical staining of neurospheres grown in the presence of LPA; assay type: cell-based, mouse
Procedure: Neurospheres were grown in suspension in the presence of LPA for 18 days, then transferred onto cover slips coated with laminin and poly-L-ornithine. The neurospheres attached within 6 hours and were allowed to spread and differentiate for an additional 48 hours. Cover slips were then fixed and processed for immunostaining. Antibodies used in these studies included antibodies against AC133 antigen (Miltenyi Biotech) and Sca-1 antigen (BD Pharmingen), against LPA receptors LPA1, LPA2 and LPA3 Exalpha Biologicals Inc., Antibody Solutions), βIII-tubulin (ovance, Inc.), and nestin (Chemicon, Inc.), CNPase (Sigma). To study the effect of LPA on differentiation of neurospheres, in some cases double immunostaining of LPA receptors and neuronal markers was performed. Results were analyzed using confocal microscopy. Visualization of the proteins was performed by two-color fluorescent dye labeling (i.e., red-Texas Red, green-Alexa Green) and subsequent analysis in laser confocal microscope appropriately equipped with filters of different wavelengths. The images were taken at the same gain setting for each filter within one experimental set. As an example, referring to FIG. 2A, B, the presence of AC133 antigen was detected by red fluorescence and that of Sca-1 by green fluorescence using separate wavelength visualization. AC133/Sca-1 co-localization was detected as yellow fluorescence using dual wavelength visualization (shown in right column of FIG. 2).
Neurospheres were grown using methods described above in the presence of LPA in semi-solid medium for two weeks. Aliquots of neurospheres were then removed and placed onto glass cover slips coated with laminin/poly-L-ornithine. Fresh medium without methyl cellulose and FBS (10% final) were added to initiate neurosphere adherence to the cover slip surface. The neurospheres became completely attached within 4 to 6 hours after transfer. […]
Cover slips were then fixed, stained with antibodies against AC133, Sca-1, LPA1, LPA2 and LPA3 receptors and analyzed using immunofluorescent techniques, as described above. […]

[2] = test system: dissociates of postnatal C57/BL mouse forebrain (neurospheres); assay: Formation and growth of neurospheres in serum-free semi-solid methylcellulose medium with growth factors; assay type: cell-based
Procedure: Preparation of single-cell suspensions and cloning in MC. Dissociates of postnatal (5-7 days old) C57/BL mouse forebrain (subependymal zone and hippocampus) were used to generate suspended clones under anchorage and serum withdrawal in semi-solid methyl cellulose (MC). The procedures were performed as previously described Kukekov et al., Glia 21:399-407, 1997; and Kukekov et al., Exp Neurol, 156:333-344, 1999, with some additional modifications. Brain samples (approximately 10 mm^3) were minced, transferred to a beaker containing a solution of 0.25% trypsin in 0.1 mM EDTA (mixture 4:1), and slowly stirred on a magnetic plate at roomm temperature for 15 minutes. After trituration through a plastic 5 ml pipette and a fire-polished Pasteur pipette, the dissociate was washed (5-8 times in 5 ml of medium) to eliminate cellular debris.
The resultant suspension was filtered through sterile gauze, and verified to contain only single cells which were counted with a hemocytometer. Finally, cells were resuspended in 0.8% MC-based medium (NeuroCult medium, Cat. #03237, StemCell Technologies, Vancouver, BC) and plated at a clonal density (i.e., about […]) in 6-well plates coated with a non-adhesive substrate, i.e., poly 2-hydroxyethyl methacrylate (poly-HEME, Sigma) according to the manufacturer's instructions. Cells were maintained in a 37° C. incubator with 95% air, 5% CO2, and 100% humidity. Clones became visible under an inverted phase microscope approximately one week after plating.
Morphometric analysis of neurospheres. The number and diameters of neurospheres was assessed using an inverted phase microscope equipped with a size covering net. The number of neurospheres in each experimental group was normalized to the protein content. Aliquots of suspensions were removed for protein measurement using Pierce BCA protein Kit (Pierce, Rockford, Ill.) according to the manufacturer's instructions. Measurements were taken following one, two and three weeks of growth in vitro.
Using the above-described methods, dissociates of postnatal(5-7 days old) C57/BL mouse forebrain, (subependymal zone and hippocampus) were used to generate suspended clones under anchorage and serum withdrawal in semi-solid MC (MC-clones) Equal amounts of dissociates were placed in serum-free DMEM/F12, 1:1 medium supplemented with 0.8% MC and insulin (NeuroCult medium, Cat. #03237, StemCell Technologies, Vancouver, BC) in the presence of (i) 10 ng/ml EGF plus 10 ng/ml FGF2, (ii) 10 μM LPA alone and (iii) EGF+FGF2 in combination with LPA. Growth factors, i.e., EGF, FGF2 were obtained from Peprotech, Inc., and LPA was obtained from LPA-Avanti Polar Lipids, Inc. Freshly prepared aliquots of EGF and FGF2 were added every 3 days during a 21 day interval of clone (neurosphere) generation. The numbers and diameters of neurospheres were measured at the end of the third week in vitro.
Using methods described above, cells were recovered after complete dissociation of mouse forebrain to single cells and plated at a density of ˜10^4 cells/well in serum free semi-solid methylcellulose medium containing growth factors, ie., 10 μM oleoyl (C18:1) LPA, or 10 ng/ml each of EGF and FGF2. […] Neurosphere growth persisted during the second week in semi-solid medium continuously supplemented with LPA or EGF+FGF2 (FIG. 1B).

LPA1 receptor = LPA1 receptor (Homo sapiens, UniProt Q92633); details: high concentration; cited from earlier work
LPA3 receptor = target: T1, LPA3 receptor (Homo sapiens, UniProt Q9UBY5); details: cited from earlier work
T1 sequence (Q9UBY5 1-353): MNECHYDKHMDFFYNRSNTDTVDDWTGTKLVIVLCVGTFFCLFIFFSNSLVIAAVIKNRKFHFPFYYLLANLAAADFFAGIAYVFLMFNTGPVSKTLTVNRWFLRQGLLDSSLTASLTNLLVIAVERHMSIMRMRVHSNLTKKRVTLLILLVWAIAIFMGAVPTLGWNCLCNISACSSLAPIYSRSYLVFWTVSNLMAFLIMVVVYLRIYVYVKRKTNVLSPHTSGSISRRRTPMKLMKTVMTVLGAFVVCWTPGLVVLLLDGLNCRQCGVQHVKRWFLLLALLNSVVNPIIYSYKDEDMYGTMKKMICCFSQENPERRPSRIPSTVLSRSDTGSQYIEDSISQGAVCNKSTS

[3] = test system: LPA-induced formation of neurospheres; details: for size of neurospheres generated by LPA: 2 weeks (FIG. 1C); for numbers of neurospheres formed: 2 weeks (FIG. 1D)
Procedure: In (C, D), neurospheres were maintained in culture for 2 weeks in the presence of LPA alone or LPA plus 1 μM or 50 μM DGPP. The number/field and the size of at least 200 neurospheres formed at 2 weeks were counted. The results are presented as mean +SEM of three independent experiments from four different neurosphere preparations. Unpaired Student's t-test was used to assess significance of the mean difference, and F test was used to compare variances.
To examine the potential involvement of LPA receptors in the LPA-induced formation of neurospheres, the effect of DGPP at low concentration (i.e., 1 μM) and high concentration (i.e., 50 μM) was compared.

[4] = grown two weeks in LPA, attached to cover slips
[5] = 10 μM LPA or 10 ng/ml each EGF and FGF2

Sequence of LPA1 receptor (Q92633 whole entry): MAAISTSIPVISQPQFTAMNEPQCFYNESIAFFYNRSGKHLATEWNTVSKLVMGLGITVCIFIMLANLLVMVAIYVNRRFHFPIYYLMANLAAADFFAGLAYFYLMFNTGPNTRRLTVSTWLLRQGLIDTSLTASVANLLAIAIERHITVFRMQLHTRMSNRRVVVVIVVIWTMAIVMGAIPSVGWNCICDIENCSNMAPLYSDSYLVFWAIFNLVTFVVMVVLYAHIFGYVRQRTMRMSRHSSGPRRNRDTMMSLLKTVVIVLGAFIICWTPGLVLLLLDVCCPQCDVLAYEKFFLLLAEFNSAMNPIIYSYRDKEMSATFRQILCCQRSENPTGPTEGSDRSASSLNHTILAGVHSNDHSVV

Compound	Sca-1 antigen and AC133 in the residual core of neurospheres grown attached ([1]; grown attached in the presence of the growth factor)	co-localization of AC133 and Sca-1 throughout the neurospheres [1, 4] [%]	expression of AC133 and Sca-1 antigens in neurospheres [1, 4]	diameter of neurospheres, Maximum [2, 5]	diameter of neurospheres, Median [2, 5]	diameter of neurospheres, Minimum [2, 5]	diameter of neurospheres, Mode [2, 5]	number of neurospheres per field (Count) [2, 5]	diameter of neurospheres, Mean ([2]; 10 μM LPA or 10 ng/ml each EGF and FGF2, serum-free methylcellulose medium) [μm]	time for which neurosphere development was sustained ([2]; continuous supplementation with growth factor)	formation of neurospheres ([2]; first week in culture, 10 μM oleoyl LPA or 10 ng/ml each EGF and FGF2)	LPA activation of LPA1 receptor (LPA1 receptor)	LPA activation of LPA3 receptor (LPA3 receptor; high concentration)	effect on LPA3 receptor (LPA3 receptor; low concentration)	size of neurospheres generated by LPA ([3]; DGPP 1 μM plus LPA)	numbers of neurospheres formed ([3]; DGPP 1 μM plus LPA)	size of neurospheres generated by LPA ([3]; DGPP 50 μM plus LPA)	numbers of neurospheres formed ([3]; DGPP 50 μM plus LPA, p=0.0056)	LPA-induced formation and growth of neurospheres ([3]; concentration not given)
1 -acyl-2-hydroxy-sn-glycero-3-phosphate [LPA]	still detected	~100	expressed both AC133 and Sca-1 antigens	204	72.25	14.1	55.4	220	79.54	up to 3 months	formed distinguishable neurospheres								
CCCCCCCC(=O)OC[C@H](COP(=O)(O)OP(=O)(O)O)OC(=O)CCCCCCC [DGPP, diacyl-glycerol pyrophosphate]												blocks	blocks	preferentially inhibit	significantly reduced	not	significantly reduced	decreased considerably	specifically inhibited
